System: HepaRG 3D microtissues
Settings: 10-day old HepaRG 3D microtissues, 1.2 mM CPA
Text: FIG. 2B is a chart showing the change in HepaRG spheroid volume as an indicator of cytotoxicity induced by cyclophosphamide (CPA) with or without 1-aminobenzotriazol (ABT). The inventors analyzed the data with two-way ANOVA with Tukey's LSD means. P=0.05. […] FIG. 2C is a picture showing hematoxylin and eosin (H&E) stained toroid-shaped HepaRG microtissues. Scale bars=100 μm.

Question: `O=P1(N(CCCl)CCCl)NCCCO1` (stereo not shown) [CPA, cyclophosphamide] was tested. Which “cytotoxicity: cell death and spheroid volume” value did it give?
Answer: Its value is “caused cell death and a significant reduction in spheroid volume”.

— patent publication US12241049B2, “Multi-compartment device containing human three-dimensional (3D) microtissues for toxicity testing” (BROWN UNIVERSITY, priority 2019, dated 2025)
